Results published in patent US20230220331A1, “TEMPORARY TREATMENT MEDIUM, TREATMENT KIT, EMBRYOGENESIS ARREST INHIBITOR, EMBRYOGENESIS ARREST INHIBITORY METHOD, DEVELOPMENTAL ENGINEERING PRODUCT PREPARATION METHOD, TRANSPLANTATION METHOD, THERAPEUTIC METHOD, AND DEVELOPMENTAL ENGINEERING PRODUCT” (priority 2020, published 2023).

Key:
[1] = tested on: two-cell frozen embryo of a heterologous inbred SPR2 mouse; assay: ES cell establishment from SPR2 frozen embryos (Treatment Example 3); format: cell-based, Mus spretus; conditions: 5 SPR2 frozen embryos thawed and cultured to blastocyst in Y-27632 medium
Method: 5. Then, if necessary, the culture was continued in the Y-27632-free mWM medium to establish ES cells.
After thawing a two-cell frozen embryo of a heterologous inbred SPR2 mouse, it was cultured to a blastocyst in the temporary treatment medium containing Y-27632, and an attempt was made to establish ES cells. As a result, ES cells could be efficiently established (5 frozen embryos, 2 strains established). On the other hand, when Y-27632 was not added, no individual production and ES cells were established.

[2] = tested on: immunodeficient mouse (nude) pronuclear stage embryos, BALB/c-nu; assay: Multi-gene knockout (BBOX1, IL2RG) in nude mouse embryos (Treatment Example 7); format: cell-based
Method: 1. Up to 3 hours before TAKE, Y-27632-added mWM medium (Y-27632 final concentration 10 μM, an example of the “temporary treatment medium” of this example) and Y-27632-free mWM medium (an example of “normal medium” of this example) were dropped into 35 mm Petri dishes by 5 drops, respectively, to prepare the drops covered with paraffin oil.
2. Pronuclear stage embryos were collected from the drops, placed in Y-27632-added mWM medium, and cultured for about 30 minutes to 1 hour (temporary treatment).
(§1) 3. After that, TAKE was performed.
4. After TAKE, the embryos were placed in Y-27632-added mWM medium and cultured for about 30 minutes to 1 hour (temporary treatment).
5. Then, the embryos were placed in Y-free mWM medium and cultured at 37° C. under 5% CO2 and (5% O2) conditions until the next day. If necessary, culture was continued or embryo transfer was performed in Y-27632-free mWM medium.
In this production example, a multi-gene KO mouse was prepared by using an immunodeficient mouse (nude, a nude mouse) embryo.
Specifically, a male of BALB/c-nu/nu and a female of BALB/c-nu/+ treated with ovarian hyperstimulation were crossed, and a pronuclear stage embryos were collected. The guide RNAs (crRNA: tracrRNA), which are two for the BBOX1 gene and two for the IL2RG gene, are electroporated at about 100 ng/μL per guide RNA, totaling about 400 ng/μL, are electroporated with 14 transfer pulses, and, before and after the electroporation, the embryos were cultured in the temporary treatment medium of this example.

[3] = tested on: two-cell stage embryo of a heterologous inbred SPR2 mouse; assay: Heterologous Tyr knockout mouse production (Treatment Example 8); format: cell-based, Mus spretus; conditions: SPR2, Tyr KO
Method: 1. Up to 3 hours before TAKE, Y-27632-added mWM medium (Y-27632 final concentration 10 μM, an example of the “temporary treatment medium” of this example), Y-27632-free mWM medium (an example of “normal medium” of this example) were dropped into 35 mm Petri dishes by 5 drops, respectively, to prepare drops covered with paraffin oil.
2. Two-cell stage embryos were collected from the drops or thawed, placed in Y-27632-added mWM medium, and cultured for about 30 minutes to 1 hour (temporary treatment).
as §1
4. After TAKE, the embryos were placed in Y-27632-added mWM medium and cultured for about 30 minutes to 1 hour (temporary treatment). Then, the embryos were placed in Y-27632-free mWM medium and cultured at 37° C. under 5% CO2 and 5% O2 conditions until transplantation.
By using a two-cell stage embryo of a heterologous inbred SPR2 mouse, four guide RNAs (crRNA: tracrRNA) for the Tyr gene were used about 100 ng/μL per RNA, for a total of about 400 ng/μL, and it was electroporated once or twice. Before and after electroporation, the embryos were cultured in the temporary treatment medium of this example.

inbred mouse B6J embryos = assay: Generation of Flox inbred mice (individuals) by two-step method (Treatment Example 11); format: cell-based
Method: 1. Up to 3 hours before TAKE, Y-27632-added mWM medium (Y-27632 final concentration 10 μM, an example of the “temporary treatment medium” of this example), Y-27632-free mWM medium (an example of “normal medium” of this example), 5 drops of each medium were dropped on 35 mm Petri dish, and then covered with paraffin oil. For the drops, twice the number of the drops plates to be performed TAKE were prepared.
2. Pronuclear stage embryos were collected, placed in Y-27632-added mWM medium, and cultured for about 30 minutes to 1 hour (temporary treatment).
3. After that, the first TAKE was performed.
3a. In the case of frozen eggs, after the first TAKE, they were placed in a Y-27632-added mWM medium and cultured for about 30 minutes to 1 hour (temporary treatment).
3b. In the case of unfrozen eggs, after the first TAKE, they were placed in a Y-27632-added mWM medium and cultured under 37° C. and 5% CO2 (5% O2) conditions until the next day (temporary treatment).
4. After the temporary treatment, the embryos were placed in Y-27632-free mWM medium and cultured at 37° C. and 5% CO2 (5% O2) conditions until the next day.
5. Both were confirmed at the next day, and the embryos at the 2-cell stage were subjected to the second TAKE.
6. After the second TAKE, the embryos were placed in Y-27632-added mWM medium and cultured for about 30 minutes to 1 hour (temporary treatment).
7. Then, they were transferred to Y-27632-free mWM medium. If necessary, culture was continued or embryo transfer was performed.
By using an inbred mouse (B6J in B6 strain) different from the inbred mouse of the treatment example 2 according to the first embodiment, knock-in is performed by the same two-step method as the above-mentioned treatment example 2, and further individual preparation is performed.

[4] = tested on: frozen and thawed pronuclear stage and 2-cell stage embryos of rat Wistar-Imamichi; assay: Genome-edited individuals by frozen 1-2 cell TAKE of Wistar-Imamichi (Treatment Example 17); format: cell-based
Source text: Next, knock-outs by TAKE were also produced in the pronuclear stage (1 cell) and the 2-cell stage (2 cells) […] of the frozen and thawed inbred rat Wistar-Imamichi. The conditions at this time were that the gRNA concentration was a specified amount (1 time), the pulse was 7 times, and the reduction rate was 40%.

[5] = tested on: early embryos of immunodeficient mouse NOD-scid; assay: Genome editing efficiency of multiple targets (Treatment Example 19); format: cell-based; conditions: Bbox1, IL2RG, 4 target sites
Method: Electroporation (genome editing) of high-concentration RNA-protein mixed with CRISPR-Cas9 at multiple sites (4 sites in total) of a plurality of genes in early embryos of immunodeficient mice, which are extremely difficult to manipulate and prepare, was performed, transplanted into the recipient's uterus, and the offspring were obtained.

[6] = of 4 surviving and 3 stillborn newborns analysed
[7] = floxed Mecp2 2STEP (HIGH CONCENTRATION)

Compound: C[C@@H](N)[C@H]1CC[C@H](C(=O)Nc2ccncc2)CC1 [Y-27632, trans-4-[(1R)-1-Aminoethyl]-N-4-pyrid inylcyclohexanecarboxamide]
- ES cell strains established [1]: 2 strains
- pups born ([2]; BALB/c nude embryos, 4 guide RNAs about 400 ng/μL, 14 transfer pulses, 63 embryos transplanted): 16
- analysed newborns with mutations [2, 6]: 3
- analysed newborns with mutations in 2 genes [2, 6]: 1
- mosaics obtained ([3]; electroporated once): 3
- individuals obtained ([3]; electroporated once, 20 embryos transplanted): 7
- mosaics obtained ([3]; electroporated twice): 3
- whites (homo or compound heterozygote) obtained ([3]; electroporated twice): 3
- individuals obtained ([3]; electroporated twice, 13 embryos transplanted): 7
- Flox individuals % (inbred mouse B6J embryos; floxed Drb1 2STEP): 2.6%
- NUMBER OF FLOX INDIVIDUALS (inbred mouse B6J embryos; floxed Drb1 2STEP): 1/39
- Flox individuals % (inbred mouse B6J embryos; [7]): 3.9%
- NUMBER OF FLOX INDIVIDUALS (inbred mouse B6J embryos; [7]): 2/51
- NUMBER OF KO INDIVIDUALS (Large Deletion) ([4]; 37 TAKE embryos, 1 recipient): 2
- NUMBER OF NEWBORNS ([4]; 37 TAKE embryos, 1 recipient, 1x gRNA, 7 pulses, 40% reduction rate): 8
- KO rate (Large deletion) (%) ([4]; KO individuals / newborns analyzed): (25%)
- KO % ([5]; 47 embryos transferred): 57%
- Pups ([5]; 47 embryos transferred): 7
- Pups (KO) ([5]; 47 embryos transferred): 4
- KO % ([5]; 49 embryos transferred): 100%
- Pups ([5]; 49 embryos transferred): 2 (2)
- Pups (KO) ([5]; 49 embryos transferred): 2 (2)
